Measured values published in patent US11530229B2, “Cyano cyclobutyl compounds for CBL-B inhibition and uses thereof” (Nurix Therapeutics, Inc., priority 2019, dated 2022).
Like-named read-outs stand apart in the source and are kept apart here.

Key:
[1] = tested on: primary human total T-cells; assay: T-cell activation, IL-2 secretion, Biological Example 2; assay type: cell-based; details: 48 hours, fold change over baseline; for fold induction at 0.3 µM: 0.3 μM inhibitor; for fold induction at 1 µM: 1 μM inhibitor; for fold induction at 3 µM: 3 μM inhibitor
Cbl-b = Cbl-b (Homo sapiens (Human), UniProt Q13191); assay: Cbl-b displacement assay (Cbl-b inhibition assay), Biological Example 1; assay type: binding
Method: Candidate compounds were evaluated for their ability to bind and inhibit Cbl-b, an E3 ubiquitin-protein ligase, as evidenced by their ability to displace a fluorophore-labeled probe (Example 59) bound to Cbl-b.
The ability of candidate compounds to displace a known inhibitor and thereby inhibit Cbl-b activity was measured by monitoring the interaction of Cbl-b with a fluorophore-labeled probe in the presence of the candidate compound. A truncated variant of Cbl-b (UniProt number Q13191; SEQ ID NO:1) containing an Avitag at its N-terminus was co-expressed with BirA biotin ligase and purified using a standard protocol (see Dou et al., Nature Structural and Molecular Biology, 8: 982-987, 2013; Avidity LLC).
Cbl-b Amino Acid Residues 36-427:
Fluorescently-labeled inhibitor probe was synthesized and tagged with BODIPY FL (Example 59). Cbl-b displacement assays were performed in a 384-well plate at room temperature in a 10 μL reaction volume by pre-incubating 0.5 nM Cbl-b or 0.125 nM Cbl-b (final concentration, indicated as “High” and “Low”, respectively) in an assay buffer containing 20 mM HEPES pH 7.5, 150 mM NaCl, 0.01% Triton X-100, 0.01% BSA and 0.5 mM TCEP in the presence of a candidate compound in 1% DMSO (final concentration) for 1 hour. After incubation in the presence of the candidate compound, the plate was incubated for an additional 1 hour in the presence of an approximate EC40 binding saturation consisting of 150 nM fluorescently-labeled inhibitor probe and 2 nM Streptavidin-Terbium (Cisbio) (final concentrations). Following the 1 hour incubation, the plates were read for TR-FRET signal at […] using an Envision plate reader (Perkin Elmer).

[2] = tested on: primary human total T-cells; assay: T-cell activation, CD25 surface staining, Biological Example 2; assay type: cell-based; details: 48 hours, fold change over baseline; for fold induction at 0.3 µM: 0.3 μM inhibitor; for fold induction at 1 µM: 1 μM inhibitor; for fold induction at 3 µM: 3 μM inhibitor
[3] = anti-CD3 and anti-CD28 co-stimulation
[4] = anti-CD3 and anti-CD28 co-stimulation, read-out: IL-2 secretion CD3/CD28 1 μM
[5] = anti-CD3 stimulation alone, read-out: IL-2 secretion CD3 1 μM
[6] = read-out: IC50 values in the Cbl-b inhibition assay of Biological Example 1
[7] = anti-CD3 and anti-CD28 co-stimulation, read-out: CD25 staining CD3/CD28 1 μM
[8] = anti-CD3 stimulation alone, read-out: CD25 staining CD3 1 μM
[9] = 0.125 nM Cbl-b final concentration (Low), read-out: Cbl-b activity IC50 (Low)

Cbl-b, sequence (Q13191 36-427): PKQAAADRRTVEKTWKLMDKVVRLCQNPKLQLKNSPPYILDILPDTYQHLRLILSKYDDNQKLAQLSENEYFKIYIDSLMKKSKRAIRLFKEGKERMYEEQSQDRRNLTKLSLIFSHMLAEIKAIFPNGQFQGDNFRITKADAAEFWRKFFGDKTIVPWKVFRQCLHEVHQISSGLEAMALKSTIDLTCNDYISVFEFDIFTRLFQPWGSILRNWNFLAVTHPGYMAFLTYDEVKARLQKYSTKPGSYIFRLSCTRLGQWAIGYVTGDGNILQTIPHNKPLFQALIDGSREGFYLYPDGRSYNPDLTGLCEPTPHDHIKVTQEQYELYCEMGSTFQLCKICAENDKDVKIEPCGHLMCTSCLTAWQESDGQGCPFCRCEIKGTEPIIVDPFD

Row | Compound | fold induction at 0.3 µM [1, 3] | fold induction at 1 µM [1, 4] | fold induction at 1 µM [1, 5] | fold induction at 3 µM ([1]; anti-CD3 stimulation alone) | IC50 (Cbl-b; 0.5 nM Cbl-b final concentration (High), read-out: Cbl-b activity IC50 (High)) [nM] | IC50 (Cbl-b; [6]) [nM] | fold induction at 0.3 µM [2, 3] | fold induction at 1 µM [2, 7] | fold induction at 1 µM [2, 8] | fold induction at 3 µM ([2]; anti-CD3 stimulation alone) | IC50 (Cbl-b; [9]) [nM]
1 | Cc1cc(C(=O)Nc2cccc([C@]3(Cc4nncn4C)C[C@H](C#N)C3)c2)nc(C2CC2)n1 [Compound 2, N-(3-((1s,3s)-3-cyano-1-((4-methyl-4H-1,2,4-triazol-3-yl)methyl)cyclobutyl)phenyl)-2-cyclopropyl-6-methylpyrimidine-4-carboxamide] | ≤ 15 | ≤ 15 | < 0.4 | < 0.4 | 2 to 5 | 2 to 5 | ≤ 1.24 | ≤ 1.24 | 1 to 1.15 | 1 to 1.15 | 
2 | Cn1cnnc1C[C@]1(c2cccc(N3Cc4c(cccc4C(F)(F)F)C3=O)c2)C[C@H](C#N)C1 [Compound 3, (1r,3r)-3-((4-methyl-4H-1,2,4-triazol-3-yl)methyl)-3-(3-(1-oxo-4-(trifluoromethyl)isoindolin-2-yl)phenyl)cyclobutane-1-carbonitrile] | ≤ 15 | ≤ 15 | < 0.4 | < 0.4 |  | ≥ 20 | ≤ 1.24 | ≤ 1.24 | ≤ 1 | 1 to 1.15 | ≥ 20
3 | CCC1CN(Cc2cc3c(c(C(F)(F)F)c2)CN(c2cccc([C@]4(Cc5nncn5C)C[C@@H](C#N)C4)c2)C3=O)CCCO1 (stereo partly shown) [Compound 5, (1r,3r)-3-(3-(6-((2-ethyl-1,4-oxazepan-4-yl)methyl)-1-oxo-4-(trifluoromethyl)isoindolin-2-yl)phenyl)-3-((4-methyl-4H-1,2,4-triazol-3-yl)methyl)cyclobutane-1-carbonitrile] | > 20 | > 20 | > 0.85 | > 0.85 |  | 2 to 5 | > 1.39 | > 1.39 | > 1.15 | > 1.15 | 2 to 5
4 | C[C@@H]1CN(Cc2cc3c(c(C(F)(F)F)c2)CN(c2cccc([C@]4(Cc5nncn5C)C[C@@H](C#N)C4)c2)C3=O)CCO1 [Compound 6, (1r,3r)-3-((4-methyl-4H-1,2,4-triazol-3-yl)methyl)-3-(3-(6-(((R)-2-methylmorpholino)methyl)-1-oxo-4-(trifluoromethyl)isoindolin-2-yl)phenyl)cyclobutane-1-carbonitrile] | ≤ 15 | ≤ 15 | 0.4 to 0.85 | 0.4 to 0.85 |  | 2 to 5 | ≤ 1.24 | ≤ 1.24 | 1 to 1.15 | ≤ 1 | 2 to 5
5 | C[C@@H]1CN(Cc2cc3c(c(C(F)(F)F)c2)CN(c2cccc([C@]4(Cc5nncn5C)C[C@@](C)(C#N)C4)c2)C3=O)CCO1 [Compound 7, (1r,3r)-1-methyl-3-((4-methyl-4H-1,2,4-triazol-3-yl)methyl)-3-(3-(6-(((R)-2-methylmorpholino)methyl)-1-oxo-4-(trifluoromethyl)isoindolin-2-yl)phenyl)cyclobutane-1-carbonitrile] | ≤ 15 | ≤ 15 | < 0.4 | < 0.4 |  | 5 to 20 | ≤ 1.24 | 1.24 to 1.39 | ≤ 1 | ≤ 1 | 5 to 20
6 | Cc1cc(C(=O)Nc2cccc([C@]3(Cc4nncn4C)C[C@@](C)(C#N)C3)c2)nc(C2CC2)n1 [Compound 8, N-(3-((1r,3r)-3-cyano-3-methyl-1-((4-methyl-4H-1,2,4-triazol-3-yl)methyl)cyclobutyl)phenyl)-2-cyclopropyl-6-methylpyrimidine-4-carboxamide] |  |  |  |  |  | ≥ 20 |  |  |  |  | ≥ 20
7 | Cc1cc(C(=O)Nc2cccc([C@]3(Cc4nncn4C)C[C@](C)(C#N)C3)c2)nc(C2CC2)n1 [Compound 9] | ≤ 15 | ≤ 15 | < 0.4 | < 0.4 |  | 5 to 20 | ≤ 1.24 | 1.24 to 1.39 | ≤ 1 | 1 to 1.15 | 5 to 20
8 | C[C@@H]1CN(Cc2cc3c(c(C(F)(F)F)c2)CN(c2cccc([C@]4(Cc5nncn5C)C[C@](C)(C#N)C4)c2)C3=O)CCO1 [Compound 10, (1S,3s)-1-methyl-3-((4-methyl-4H-1,2,4-triazol-3-yl)methyl)-3-(3-(6-(((R)-2-methylmorpholino)methyl)-1-oxo-4-(trifluoromethyl)isoindolin-2-yl)phenyl)cyclobutane-1-carbonitrile] | ≤ 15 | ≤ 15 | < 0.4 | < 0.4 |  | ≥ 20 | ≤ 1.24 | ≤ 1.24 | ≤ 1 | ≤ 1 | ≥ 20
9 | Cn1cnnc1C[C@]1(c2cccc(N3Cc4c(cc(CNC5CC6C(C5)C6(F)F)cc4C(F)(F)F)C3=O)c2)C[C@H](C#N)C1 (stereo partly shown) [Compound 12, (1r,3r)-3-(3-(6-(((6,6-difluorobicyclo[3.1.0]hexan-3-yl)amino)methyl)-1-oxo-4-(trifluoromethyl)isoindolin-2-yl)phenyl)-3-((4-methyl-4H-1,2,4-triazol-3-yl)methyl)cyclobutane-1-carbonitrile] | 15 to 20 | 15 to 20 | > 0.85 | 0.4 to 0.85 |  | < 1 | 1.24 to 1.39 | 1.24 to 1.39 | 1 to 1.15 | 1 to 1.15 | < 1
10 | CC1CCCN(Cc2cc3c(c(C(F)(F)F)c2)CN(c2cccc([C@]4(Cc5nncn5C)C[C@@H](C#N)C4)c2)C3=O)CC1 (stereo partly shown) [Compound 13, (1r,3r)-3-((4-methyl-4H-1,2,4-triazol-3-yl)methyl)-3-(3-(6-((4-methylazepan-1-yl)methyl)-1-oxo-4-(trifluoromethyl)isoindolin-2-yl)phenyl)cyclobutane-1-carbonitrile] | 15 to 20 | 15 to 20 | 0.4 to 0.85 | 0.4 to 0.85 |  |  | 1.24 to 1.39 | 1.24 to 1.39 | > 1.15 | 1 to 1.15 | 2 to 5
11 | C[C@@H]1CN(Cc2cc3c(c(C(F)(F)F)c2)CN(c2cccc([C@]4(Cc5nncn5C)C[C@@H](CC#N)C4)c2)C3=O)CCC1(F)F [Compound 51, [(1r,3r)-3-[3-(6-{[(3R)-4,4-difluoro-3-methylpiperidin-1-yl]methyl}-1-oxo-4-(trifluoromethyl)-3H-isoindol-2-yl)phenyl]-3-[(4-methyl-1,2,4-triazol-3-yl)methyl]cyclobutyl]acetonitrile] |  |  |  |  |  | ≥ 20 |  |  |  |  | ≥ 20
12 | C[C@@H]1CN(Cc2cc3c(c(C(F)(F)F)c2)CN(c2cccc([C@]4(Cc5nncn5C)C[C@H](CC#N)C4)c2)C3=O)CCC1(F)F [Compound 52, ((1S,3s)-3-(3-(6-(((R)-4,4-difluoro-3-methylpiperidin-1-yl)methyl)-1-oxo-4-(trifluoromethyl)isoindolin-2-yl)phenyl)-3-((4-methyl-4H-1,2,4-triazol-3-yl)methyl)cyclobutyl)acetonitrile] |  |  |  |  |  | 5 to 20 |  |  |  |  | 5 to 20
13 | C[C@@H]1CN(C(C)(C)c2cc3c(c(C(F)(F)F)c2)CN(c2cccc([C@]4(Cc5nncn5C)C[C@@H](C#N)C4)c2)C3=O)CCO1 [Compound 58, (1R,3r)-3-((4-methyl-4H-1,2,4-triazol-3-yl)methyl)-3-(3-(6-(2-((R)-2-methylmorpholino)propan-2-yl)-1-oxo-4-(trifluoromethyl)isoindolin-2-yl)phenyl)cyclobutane-1-carbonitrile] |  |  |  |  |  | 2 to 5 |  |  |  |  | 2 to 5
